“Also recorded” adds a separate entry of the source.
Tests used:
[1] = Single ascending dose (SAD) study, safety and tolerability; type: in vivo, human
Method: Eight cohorts of eight subjects each (six on active and two on placebo) were enrolled. Two different oral formulations of the compound of formula (I) were tested. The initial formulation was neat active pharmaceutical ingredient (API) filled in oral capsules of the compound of formula (I) (API-in-Capsule) which was tested at three dose levels: 200 mg, 400 mg, and 800 mg. Subsequently, an improved oral formulation was tested, the amorphous solid dispersion (ASD) of the compound of formula (I) (ASD-in-Capsule) at five dose levels: 50 mg, 100 mg, 200 mg, 350 mg, and 450 mg (FIG. 1).
(§1) Safety and tolerability were assessed at pre-specified timepoints throughout the studies by AEs reporting, vital signs measurements, physical examination, laboratory tests, and ECG examinations.
Safety and tolerability data were evaluated for the treated population (all participants who took at least one dose of study medications). […] Descriptive statistics were used to evaluate the safety and tolerability data and for plasma concentrations and PK parameters of the compound of formula (I).

[2] = Multiple ascending dose (MAD) part, safety and tolerability; type: in vivo, human; conditions: for Adverse events possibly-related to drug administration: Multiple ascending dose, ASD formulation
Method: Three cohorts of eight subjects each (six on active and two on placebo) were enrolled and received the following treatments orally: 100 mg, 200 mg, and 400 mg ASD-in-Capsule b.i.d. (one dose on Days 1 and 8, twice-daily doses from Days 2 to 7) (FIG. 4).
as §1
Safety and tolerability data were evaluated for the treated population (all participants who took at least one dose of study medications). […] Descriptive statistics were used to evaluate the for safety and tolerability data and for plasma concentrations and PK parameters of the compound of formula (I).

Compound: Cc1cccc(COc2ccc(Sc3ccoc3C3NC(=O)NC3=O)cc2)c1 (stereo not drawn) [compound of formula (I)]
- Safety and tolerability, overall ([1]; across all dose levels studied): safe and generally well-tolerated
- Severe or serious AEs ([1]; all dose levels and both formulations): No severe or serious AEs were reported
- Changes from baseline in weight, vital signs, physical examination, laboratory or ECG data ([1]; any time point): No clinically relevant changes
- Total number of AEs possibly related to treatment ([2]; MAD study, all dose levels): seven
- Adverse events possibly-related to drug administration ([2]; 100 mg): fatigue; also recorded: cough
- Adverse events possibly-related to drug administration ([2]; 200 mg): eye irritation; also recorded: erythema; also recorded: dizziness; also recorded: skin rash
- Severe or serious AEs ([2]; Study II (MAD and FE parts)): No severe or serious AEs were reported
- Changes from baseline in weight, vital signs, physical examination, laboratory or ECG data ([2]; Study II (MAD and FE parts), any time point): No clinically relevant changes
- Safety and tolerability, overall ([2]; across all dose levels and dosing regimens studied): safe and generally well-tolerated
